From PubChem BioAssay (NCI)
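These data come from cells grown in 96-well plates and exposed to compound for 48 hours at five concentrations. At the GI50, growth is halved. The concentration for full growth arrest is given as TGI.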

Key:
Assay in all cases: NCI anticancer screen, dose series, 48 h
SNB-19 CNS = system: SNB-19 CNS
SR leukemia = system: SR leukemia
SK-MEL-5 melanoma = system: SK-MEL-5 melanoma
786-0 renal = system: 786-0 renal
BT-549 breast = system: BT-549 breast
NCI-H522 lung = system: NCI-H522 lung
MOLT-4 leukemia = system: MOLT-4 leukemia
DU-145 prostate = system: DU-145 prostate
A498 renal = system: A498 renal
EKVX NSCLC = system: EKVX NSCLC
COLO 205 colon = system: COLO 205 colon
TK-10 renal = system: TK-10 renal
HCT-116 colon = system: HCT-116 colon
OVCAR-8 ovarian = system: OVCAR-8 ovarian
OVCAR-5 ovarian = system: OVCAR-5 ovarian
HOP-62 NSCLC = system: HOP-62 NSCLC
SN12C renal = system: SN12C renal
KM12 colon = system: KM12 colon
HCC-2998 colon = system: HCC-2998 colon
SW-620 colon = system: SW-620 colon
HT29 colon = system: HT29 colon
U251 CNS = system: U251 CNS
HCT-15 colon = system: HCT-15 colon
NCI-H226 lung = system: NCI-H226 lung
PC-3 prostate = system: PC-3 prostate
SF-295 CNS = system: SF-295 CNS
ACHN renal = system: ACHN renal
UACC-62 melanoma = system: UACC-62 melanoma
T-47D breast = system: T-47D breast
NCI-H460 lung = system: NCI-H460 lung
SF-539 CNS = system: SF-539 CNS
M14 melanoma = system: M14 melanoma
A549 NSCLC = system: A549 NSCLC
CAKI-1 renal = system: CAKI-1 renal
MCF7 breast = system: MCF7 breast
MDA-MB-231 breast = system: MDA-MB-231 breast
RXF 393 renal = system: RXF 393 renal
SNB-75 CNS = system: SNB-75 CNS
NCI-H23 lung = system: NCI-H23 lung
MALME-3M melanoma = system: MALME-3M melanoma
OVCAR-4 ovarian = system: OVCAR-4 ovarian
RPMI-8226 leukemia = system: RPMI-8226 leukemia
CCRF-CEM leukemia = system: CCRF-CEM leukemia
UO-31 renal = system: UO-31 renal
MDA-MB-435 = system: MDA-MB-435
SK-MEL-28 melanoma = system: SK-MEL-28 melanoma
UACC-257 melanoma = system: UACC-257 melanoma
IGROV1 ovarian = system: IGROV1 ovarian
LOX IMVI melanoma = system: LOX IMVI melanoma
SK-OV-3 ovarian = system: SK-OV-3 ovarian
NCI/ADR-RES ovarian = system: NCI/ADR-RES ovarian
SF-268 CNS = system: SF-268 CNS
HS 578T breast = system: HS 578T breast
OVCAR-3 ovarian = system: OVCAR-3 ovarian

N#Cc1c(N)nc(NCc2ccccc2)c(C#N)c1-c1ccc(Cl)cc1
GI50 (SNB-19 CNS): 31.6 µM | TGI (SNB-19 CNS): > 100 µM | GI50 (SR leukemia): 13.3 µM | TGI (SR leukemia): 52.8 µM | GI50 (SK-MEL-5 melanoma): 25.9 µM | TGI (SK-MEL-5 melanoma): > 100 µM | GI50 (786-0 renal): 20 µM | TGI (786-0 renal): 38.6 µM | GI50 (BT-549 breast): 19.6 µM | TGI (BT-549 breast): 60.4 µM | GI50 (NCI-H522 lung): 20.9 µM | TGI (NCI-H522 lung): 57.5 µM | GI50 (MOLT-4 leukemia): 34.3 µM | TGI (MOLT-4 leukemia): > 100 µM | GI50 (DU-145 prostate): 17.7 µM | TGI (DU-145 prostate): 55.7 µM | GI50 (A498 renal): 10.4 µM | TGI (A498 renal): 26.4 µM | GI50 (EKVX NSCLC): 27.3 µM | TGI (EKVX NSCLC): 79 µM | GI50 (COLO 205 colon): 46.9 µM | TGI (COLO 205 colon): > 100 µM | GI50 (TK-10 renal): 14.4 µM | TGI (TK-10 renal): 32.8 µM | GI50 (HCT-116 colon): 15.8 µM | TGI (HCT-116 colon): 41.3 µM | GI50 (OVCAR-8 ovarian): 19 µM | TGI (OVCAR-8 ovarian): 57.2 µM | GI50 (OVCAR-5 ovarian): 24.2 µM | TGI (OVCAR-5 ovarian): 76.1 µM | GI50 (HOP-62 NSCLC): 16.1 µM | TGI (HOP-62 NSCLC): 31.2 µM | GI50 (SN12C renal): 16.1 µM | TGI (SN12C renal): 38.3 µM | GI50 (KM12 colon): 25.2 µM | TGI (KM12 colon): > 100 µM | GI50 (HCC-2998 colon): 71.1 µM | TGI (HCC-2998 colon): > 100 µM | GI50 (SW-620 colon): 16.2 µM | TGI (SW-620 colon): 96.9 µM | GI50 (HT29 colon): 22.3 µM | TGI (HT29 colon): > 100 µM | GI50 (U251 CNS): 12.4 µM | TGI (U251 CNS): 26.9 µM | GI50 (HCT-15 colon): 18.8 µM | TGI (HCT-15 colon): > 100 µM | GI50 (NCI-H226 lung): 10.6 µM | TGI (NCI-H226 lung): 31.2 µM | GI50 (PC-3 prostate): 17.9 µM | TGI (PC-3 prostate): 48.7 µM | GI50 (SF-295 CNS): 14.2 µM | TGI (SF-295 CNS): 34.4 µM | GI50 (ACHN renal): 13.4 µM | TGI (ACHN renal): 32.8 µM | GI50 (UACC-62 melanoma): 14.7 µM | TGI (UACC-62 melanoma): 33.5 µM | GI50 (T-47D breast): 27.3 µM | TGI (T-47D breast): > 100 µM | GI50 (NCI-H460 lung): 10.2 µM | TGI (NCI-H460 lung): 28.7 µM | GI50 (SF-539 CNS): 25.9 µM | TGI (SF-539 CNS): 68.1 µM | GI50 (M14 melanoma): 20 µM | TGI (M14 melanoma): 99.7 µM | GI50 (A549 NSCLC): 28.3 µM | TGI (A549 NSCLC): > 100 µM | GI50 (CAKI-1 renal): 20.1 µM | TGI (CAKI-1 renal): 46.7 µM | GI50 (MCF7 breast): 13.8 µM | TGI (MCF7 breast): 83.1 µM | GI50 (MDA-MB-231 breast): 14.2 µM | TGI (MDA-MB-231 breast): 33.2 µM | GI50 (RXF 393 renal): 26.5 µM | TGI (RXF 393 renal): 74.1 µM | GI50 (SNB-75 CNS): 22.1 µM | TGI (SNB-75 CNS): 72.3 µM | GI50 (NCI-H23 lung): 22.8 µM | TGI (NCI-H23 lung): 80 µM | GI50 (MALME-3M melanoma): 14.4 µM | TGI (MALME-3M melanoma): 54.5 µM | GI50 (OVCAR-4 ovarian): 9.57 µM | TGI (OVCAR-4 ovarian): > 100 µM | GI50 (RPMI-8226 leukemia): 18.9 µM | TGI (RPMI-8226 leukemia): 97.1 µM | GI50 (CCRF-CEM leukemia): 28.2 µM | TGI (CCRF-CEM leukemia): > 100 µM | GI50 (UO-31 renal): 31.9 µM | TGI (UO-31 renal): > 100 µM | GI50 (MDA-MB-435): 15.7 µM | TGI (MDA-MB-435): 43.6 µM | GI50 (SK-MEL-28 melanoma): 25.9 µM | TGI (SK-MEL-28 melanoma): > 100 µM | GI50 (UACC-257 melanoma): 67.9 µM | TGI (UACC-257 melanoma): > 100 µM | GI50 (IGROV1 ovarian): 13.5 µM | TGI (IGROV1 ovarian): 32.4 µM | GI50 (LOX IMVI melanoma): 12.4 µM | TGI (LOX IMVI melanoma): 29.3 µM | GI50 (SK-OV-3 ovarian): 33.2 µM | TGI (SK-OV-3 ovarian): > 100 µM | GI50 (NCI/ADR-RES ovarian): 19.8 µM | TGI (NCI/ADR-RES ovarian): 60 µM | GI50 (SF-268 CNS): 14.3 µM | TGI (SF-268 CNS): 35.6 µM | GI50 (HS 578T breast): 15.6 µM | TGI (HS 578T breast): 40.4 µM | GI50 (OVCAR-3 ovarian): 14.7 µM | TGI (OVCAR-3 ovarian): 37.1 µM
